How the values were obtained:
[1] = organism: Homo sapiens; test: Binding affinity to GABA-gated chloride channel (unknown origin) at 1 uM by antagonist radioligand binding assay relative to control
[2] = biological target: 5-hydroxytryptamine receptor 7 (Homo sapiens, UniProt P34969); test: Displacement of [3H]LSD from human recombinant 5-HT7 receptor at 1 uM after 120 mins by scintillation counting analysis relative to control
[3] = biological target: Histamine H1 receptor (Homo sapiens, UniProt P35367); test: Displacement of [3H]pyrilamine from human recombinant histamine H1 receptor at 10 uM after 60 mins by scintillation counting analysis relative to control
[4] = biological target: Type-1 angiotensin II receptor (Homo sapiens) (UniProt P30556); test: Displacement of [125I][Sar1,Ile8]-AT-II from human recombinant AT1 receptor at 10 uM after 120 mins by scintillation counting analysis relative to control
[5] = biological target: Adenosine receptor A1 (Homo sapiens, UniProt P30542); test: Displacement of [3H]-DPCPX from human recombinant adenosine A1 receptor after 60 mins by scintillation counting analysis
[6] = biological target: Muscarinic acetylcholine receptor M1 (Homo sapiens) (UniProt P11229); test: Displacement of […] from human recombinant M1 receptor at 10 uM after 60 mins by scintillation counting analysis relative to control
[7] = biological target: T1, Nuclear receptor ROR-gamma (Homo sapiens, UniProt P51449); test: Inverse agonist activity at RORgammat in human whole blood assessed as reduction in IL17A production
T1 sequence (P51449 whole entry): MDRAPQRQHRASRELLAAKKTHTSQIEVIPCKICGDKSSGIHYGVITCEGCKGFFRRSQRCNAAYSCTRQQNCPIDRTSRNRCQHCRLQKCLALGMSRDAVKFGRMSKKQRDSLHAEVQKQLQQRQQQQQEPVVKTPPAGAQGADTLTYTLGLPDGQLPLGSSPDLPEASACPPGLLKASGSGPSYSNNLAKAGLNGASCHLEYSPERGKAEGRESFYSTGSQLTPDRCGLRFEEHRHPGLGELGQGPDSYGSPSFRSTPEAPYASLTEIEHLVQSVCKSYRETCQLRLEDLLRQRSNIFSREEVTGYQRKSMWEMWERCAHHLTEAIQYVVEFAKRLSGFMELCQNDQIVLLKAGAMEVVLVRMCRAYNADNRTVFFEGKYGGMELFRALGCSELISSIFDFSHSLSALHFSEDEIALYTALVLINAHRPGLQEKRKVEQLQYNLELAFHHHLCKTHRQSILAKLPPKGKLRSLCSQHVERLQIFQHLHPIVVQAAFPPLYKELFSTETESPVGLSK

[8] = biological target: Neuromedin-K receptor (Homo sapiens, UniProt P29371); test: Displacement of [3H]SR 142801 from human recombinant NK3 receptor after 120 mins by scintillation counting analysis
[9] = biological target: T2, PXR (NR1I2) (Homo sapiens, UniProt O75469); test: […] at PXR LBD (unknown origin) expressed in HEK293 cells […] at 1 uM after 16 hrs by luciferase reporter gene assay relative to rifampicin; type: ADME, cell-based; settings: HEK293 cells expressing PXR LBD, read-out: Efficacy
T2 sequence (O75469 whole entry): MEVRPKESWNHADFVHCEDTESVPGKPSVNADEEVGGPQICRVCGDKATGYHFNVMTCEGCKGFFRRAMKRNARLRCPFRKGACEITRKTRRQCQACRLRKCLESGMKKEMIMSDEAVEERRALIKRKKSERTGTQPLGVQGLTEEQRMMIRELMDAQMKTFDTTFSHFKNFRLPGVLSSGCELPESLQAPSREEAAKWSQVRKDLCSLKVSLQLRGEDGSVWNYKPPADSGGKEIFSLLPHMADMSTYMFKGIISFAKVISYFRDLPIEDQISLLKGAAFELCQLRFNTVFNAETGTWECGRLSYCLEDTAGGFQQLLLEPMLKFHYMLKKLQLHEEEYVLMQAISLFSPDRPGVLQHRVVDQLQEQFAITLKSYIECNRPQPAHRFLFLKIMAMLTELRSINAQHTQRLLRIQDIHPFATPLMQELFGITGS

[10] = biological target: Neuropeptide Y receptor type 2 (Homo sapiens) (UniProt P49146); test: Displacement of [125I]peptide YY from human Y2 receptor at 1 uM after 120 mins by scintillation counting analysis relative to control
[11] = biological target: Activin receptor type-1B (Homo sapiens) (UniProt P36896); test: Inhibition of recombinant GST-tagged human ACVR1B catalytic domain (150 to 505 residues) expressed in baculovirus expression system at 10 uM in presence of ATP relative to control
[12] = biological target: Adrenergic receptor alpha-1 (Rattus norvegicus) (UniProt P15823+P23944+P43140); test: Displacement of [3H]-prazosin from rat alpha1 adrenoceptor at 1 uM after 60 mins by scintillation counting analysis relative to control; type: protein assay
[13] = biological target: Adrenergic receptor alpha-2 (Rattus norvegicus, UniProt P22086+P19328+P22909); test: Displacement of [3H]-RX 821002 from rat alpha2 adrenoceptor after 60 mins by scintillation counting analysis; type: protein assay
[14] = biological target: Beta-1 adrenergic receptor (Homo sapiens, UniProt P08588); test: Displacement of [3H](-)CGP 12177 from human beta1 adrenoceptor at 10 uM after 60 mins by scintillation counting analysis relative to control
[15] = biological target: Mitogen-activated protein kinase 1 (Homo sapiens) (UniProt P28482); test: Inhibition of recombinant GST-tagged human ERK2 expressed in Escherichia coli at 10 uM in presence of ATP relative to control
[16] = biological target: Neuropeptide Y receptor type 1 (Homo sapiens) (UniProt P25929); test: Displacement of [125I]peptide YY from human Y1 receptor at 10 uM after 120 mins by scintillation counting analysis relative to control
[17] = Initial plasma concentration in Sprague-Dawley rat at 1 mg/kg, iv; type: ADME, organism-based
[18] = biological target: Muscarinic acetylcholine receptor M1 (Homo sapiens, UniProt P11229); test: Displacement of […] from human recombinant M1 receptor after 60 mins by scintillation counting analysis
[19] = biological target: C-C chemokine receptor type 1 (Homo sapiens, UniProt P32246); test: Displacement of [125I]MIP-1alpha from human recombinant CCR1 receptor after 120 mins by scintillation counting analysis
[20] = biological target: Sodium-dependent dopamine transporter (Homo sapiens) (UniProt Q01959); test: Displacement of [3H][…] from recombinant human Dopamine transporter at 10 uM after 120 mins by scintillation counting analysis relative to control
[21] = biological target: Neuromedin-K receptor (Homo sapiens) (UniProt P29371); test: Displacement of [3H]SR 142801 from human recombinant NK3 receptor at 1 uM after 120 mins by scintillation counting analysis relative to control
[22] = biological target: D(1A) dopamine receptor (Homo sapiens, UniProt P21728); test: Displacement of [3H]-SCH 23390 from human recombinant dopamine D1 receptor at 1 uM after 60 mins by scintillation counting analysis relative to control
[23] = biological target: Inhibitor of nuclear factor kappa-B kinase subunit beta (Homo sapiens) (UniProt O14920); test: Inhibition of recombinant full length GST-tagged human IKKbeta expressed in baculovirus expression system at 10 uM in presence of ATP relative to control
Chain of Inhibitor of nuclear factor kappa-B kinase subunit beta (Homo sapiens) (O14920 whole entry): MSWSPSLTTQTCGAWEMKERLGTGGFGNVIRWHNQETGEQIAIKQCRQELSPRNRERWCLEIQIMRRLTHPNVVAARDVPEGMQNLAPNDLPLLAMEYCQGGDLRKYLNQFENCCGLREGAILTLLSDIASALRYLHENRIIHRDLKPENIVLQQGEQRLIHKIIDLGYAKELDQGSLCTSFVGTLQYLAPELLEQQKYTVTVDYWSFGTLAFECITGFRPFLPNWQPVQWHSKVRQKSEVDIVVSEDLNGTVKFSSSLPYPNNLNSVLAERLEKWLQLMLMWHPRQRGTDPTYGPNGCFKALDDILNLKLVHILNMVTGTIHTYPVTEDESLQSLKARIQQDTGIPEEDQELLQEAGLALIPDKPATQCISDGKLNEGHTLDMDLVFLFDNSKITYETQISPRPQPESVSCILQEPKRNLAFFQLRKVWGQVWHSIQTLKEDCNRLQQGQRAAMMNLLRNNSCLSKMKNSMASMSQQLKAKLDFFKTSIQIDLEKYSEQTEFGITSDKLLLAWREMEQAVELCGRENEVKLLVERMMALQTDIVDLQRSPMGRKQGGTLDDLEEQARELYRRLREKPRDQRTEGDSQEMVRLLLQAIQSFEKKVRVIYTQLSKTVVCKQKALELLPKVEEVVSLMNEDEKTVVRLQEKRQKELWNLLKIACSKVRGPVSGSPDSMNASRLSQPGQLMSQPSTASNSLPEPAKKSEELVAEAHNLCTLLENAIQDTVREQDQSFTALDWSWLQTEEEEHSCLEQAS

Chain of Neuropeptide Y receptor type 2 (Homo sapiens) (P49146 whole entry, the tested form may be a part): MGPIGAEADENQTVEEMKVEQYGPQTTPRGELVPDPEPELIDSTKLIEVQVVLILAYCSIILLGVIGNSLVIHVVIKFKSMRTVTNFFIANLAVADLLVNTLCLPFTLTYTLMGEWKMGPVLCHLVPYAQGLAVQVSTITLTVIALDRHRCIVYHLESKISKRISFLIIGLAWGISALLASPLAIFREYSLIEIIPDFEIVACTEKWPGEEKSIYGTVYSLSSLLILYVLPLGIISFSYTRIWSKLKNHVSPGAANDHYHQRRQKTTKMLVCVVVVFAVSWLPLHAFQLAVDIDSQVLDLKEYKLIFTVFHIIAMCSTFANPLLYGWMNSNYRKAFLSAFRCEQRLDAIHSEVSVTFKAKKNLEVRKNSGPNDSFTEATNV
Chain of C-C chemokine receptor type 1 (P32246 whole entry): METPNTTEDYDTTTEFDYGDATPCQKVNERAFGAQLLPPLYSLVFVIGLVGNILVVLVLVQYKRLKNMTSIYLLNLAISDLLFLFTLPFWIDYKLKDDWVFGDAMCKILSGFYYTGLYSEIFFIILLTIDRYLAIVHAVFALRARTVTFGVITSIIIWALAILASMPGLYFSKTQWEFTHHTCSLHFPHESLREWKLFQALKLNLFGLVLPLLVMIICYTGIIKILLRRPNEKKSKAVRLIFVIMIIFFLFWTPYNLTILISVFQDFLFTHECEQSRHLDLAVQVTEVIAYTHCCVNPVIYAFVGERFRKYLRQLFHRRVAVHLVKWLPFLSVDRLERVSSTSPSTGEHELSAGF
Chain of Neuromedin-K receptor (Homo sapiens) (P29371 whole entry): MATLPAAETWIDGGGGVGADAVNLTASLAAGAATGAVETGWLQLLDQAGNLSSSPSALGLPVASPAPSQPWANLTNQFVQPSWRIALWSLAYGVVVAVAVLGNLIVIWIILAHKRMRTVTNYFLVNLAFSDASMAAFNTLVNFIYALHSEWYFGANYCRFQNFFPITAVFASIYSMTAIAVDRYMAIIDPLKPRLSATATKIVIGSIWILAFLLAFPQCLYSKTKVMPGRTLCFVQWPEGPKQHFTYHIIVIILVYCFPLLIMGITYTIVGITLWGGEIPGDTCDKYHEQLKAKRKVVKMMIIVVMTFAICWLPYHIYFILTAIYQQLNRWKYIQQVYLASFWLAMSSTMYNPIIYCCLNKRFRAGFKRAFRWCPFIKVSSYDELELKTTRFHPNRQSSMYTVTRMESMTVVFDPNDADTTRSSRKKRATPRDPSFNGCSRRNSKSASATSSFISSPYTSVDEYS
Chain of Neuromedin-K receptor (P29371 whole entry, the tested form may be a part): as the sequence (P29371 whole entry) above
Chain of Neuropeptide Y receptor type 1 (Homo sapiens) (P25929 whole entry): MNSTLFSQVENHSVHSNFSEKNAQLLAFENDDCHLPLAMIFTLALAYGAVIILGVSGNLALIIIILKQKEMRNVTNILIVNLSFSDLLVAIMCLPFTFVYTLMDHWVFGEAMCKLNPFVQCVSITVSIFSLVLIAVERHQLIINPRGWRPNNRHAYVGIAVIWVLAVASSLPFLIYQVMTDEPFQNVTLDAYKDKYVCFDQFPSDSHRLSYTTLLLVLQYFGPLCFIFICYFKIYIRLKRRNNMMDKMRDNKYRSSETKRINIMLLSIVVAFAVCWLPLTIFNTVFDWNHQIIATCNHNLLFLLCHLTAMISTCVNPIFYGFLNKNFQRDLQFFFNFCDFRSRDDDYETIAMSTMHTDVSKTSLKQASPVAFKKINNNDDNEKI
Chain of D(1A) dopamine receptor (P21728 whole entry): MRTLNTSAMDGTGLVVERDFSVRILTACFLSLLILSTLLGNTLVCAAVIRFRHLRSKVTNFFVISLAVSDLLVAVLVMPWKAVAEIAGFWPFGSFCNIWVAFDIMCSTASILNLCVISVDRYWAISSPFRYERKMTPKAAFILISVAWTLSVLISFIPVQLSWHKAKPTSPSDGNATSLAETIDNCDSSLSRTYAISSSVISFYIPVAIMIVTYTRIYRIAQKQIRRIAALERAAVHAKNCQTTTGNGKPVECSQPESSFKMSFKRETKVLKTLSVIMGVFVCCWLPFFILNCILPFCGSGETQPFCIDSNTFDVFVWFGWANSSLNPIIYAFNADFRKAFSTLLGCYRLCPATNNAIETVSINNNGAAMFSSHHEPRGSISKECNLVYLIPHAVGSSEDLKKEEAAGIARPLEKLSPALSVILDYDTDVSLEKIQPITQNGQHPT
Chain of Beta-1 adrenergic receptor (P08588 whole entry, looked up): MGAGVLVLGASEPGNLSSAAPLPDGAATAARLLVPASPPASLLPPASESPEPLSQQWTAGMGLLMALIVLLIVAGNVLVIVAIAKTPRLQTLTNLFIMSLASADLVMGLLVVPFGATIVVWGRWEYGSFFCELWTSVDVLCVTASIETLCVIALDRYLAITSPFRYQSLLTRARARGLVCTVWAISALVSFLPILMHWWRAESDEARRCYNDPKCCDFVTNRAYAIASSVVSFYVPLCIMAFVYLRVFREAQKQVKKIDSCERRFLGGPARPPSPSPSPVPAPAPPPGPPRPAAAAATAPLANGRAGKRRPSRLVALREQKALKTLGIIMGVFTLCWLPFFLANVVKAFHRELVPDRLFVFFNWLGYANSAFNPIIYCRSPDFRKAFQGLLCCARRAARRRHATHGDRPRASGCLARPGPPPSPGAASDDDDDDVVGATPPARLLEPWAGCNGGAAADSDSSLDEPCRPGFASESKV
Chain of 5-hydroxytryptamine receptor 7 (P34969 whole entry): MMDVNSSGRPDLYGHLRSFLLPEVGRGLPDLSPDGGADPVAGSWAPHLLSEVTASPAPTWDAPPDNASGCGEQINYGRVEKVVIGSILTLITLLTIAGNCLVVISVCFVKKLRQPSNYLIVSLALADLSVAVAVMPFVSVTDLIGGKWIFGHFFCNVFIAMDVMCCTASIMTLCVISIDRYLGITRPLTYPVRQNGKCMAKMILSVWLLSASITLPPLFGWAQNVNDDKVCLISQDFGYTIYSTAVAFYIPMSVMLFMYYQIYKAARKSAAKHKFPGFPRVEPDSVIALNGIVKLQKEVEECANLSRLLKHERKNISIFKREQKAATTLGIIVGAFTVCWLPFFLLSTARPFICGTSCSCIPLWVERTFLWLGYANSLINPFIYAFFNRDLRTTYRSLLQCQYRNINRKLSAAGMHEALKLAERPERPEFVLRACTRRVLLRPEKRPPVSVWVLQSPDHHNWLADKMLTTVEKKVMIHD
Chain of Muscarinic acetylcholine receptor M1 (P11229 whole entry): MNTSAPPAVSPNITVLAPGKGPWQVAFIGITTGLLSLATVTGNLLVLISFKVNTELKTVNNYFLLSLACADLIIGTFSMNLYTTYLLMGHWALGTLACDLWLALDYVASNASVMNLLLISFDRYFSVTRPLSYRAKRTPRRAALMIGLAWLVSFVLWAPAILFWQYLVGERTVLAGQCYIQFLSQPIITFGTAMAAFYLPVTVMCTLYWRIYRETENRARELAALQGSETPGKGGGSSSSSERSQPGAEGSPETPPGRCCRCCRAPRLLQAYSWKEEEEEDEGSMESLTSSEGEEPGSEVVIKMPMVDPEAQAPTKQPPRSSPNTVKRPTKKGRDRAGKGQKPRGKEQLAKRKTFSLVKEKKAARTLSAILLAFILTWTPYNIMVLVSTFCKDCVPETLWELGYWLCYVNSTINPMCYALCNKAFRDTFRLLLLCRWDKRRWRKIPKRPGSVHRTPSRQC
Chain of Muscarinic acetylcholine receptor M1 (Homo sapiens) (P11229 whole entry): as above
Chain of Activin receptor type-1B (Homo sapiens) (P36896 whole entry, the tested form may be a part): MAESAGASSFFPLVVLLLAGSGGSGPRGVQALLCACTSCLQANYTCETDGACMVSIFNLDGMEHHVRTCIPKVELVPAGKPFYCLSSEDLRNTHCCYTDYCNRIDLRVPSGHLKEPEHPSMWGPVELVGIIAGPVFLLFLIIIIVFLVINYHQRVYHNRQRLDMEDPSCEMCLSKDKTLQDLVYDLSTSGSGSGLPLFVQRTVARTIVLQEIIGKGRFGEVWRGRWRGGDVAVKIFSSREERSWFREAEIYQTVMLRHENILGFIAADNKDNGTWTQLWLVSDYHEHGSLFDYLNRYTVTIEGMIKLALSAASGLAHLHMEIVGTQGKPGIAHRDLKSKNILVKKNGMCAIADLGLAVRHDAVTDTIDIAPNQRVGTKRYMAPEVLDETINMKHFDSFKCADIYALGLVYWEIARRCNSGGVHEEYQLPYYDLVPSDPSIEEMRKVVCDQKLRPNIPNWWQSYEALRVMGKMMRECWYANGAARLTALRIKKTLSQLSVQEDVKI

## CC(C)(C)NS(=O)(=O)c1ccc(-c2sc(C(=O)N[C@H]3C[C@H](C(=O)O)C3)nc2CC2CCCCC2)c2ccccc12
[1]
  inhibition: 14%
[2]
  inhibition: < 10%
[3]
  inhibition: 54%
[4]
  inhibition: < 10%
[5]
  IC50: 0.61 nM
[6]
  inhibition: < 10%
[7]
  EC50: 82 nM
[8]
  IC50: 8.2 nM
[9]
  Emax at 16 h, 1 µM: 141%
[10]
  inhibition: < 10%
[11]
  inhibition: -2%
[12]
  inhibition: < 10%
[13]
  IC50: 43 nM
[14]
  inhibition: 11%
[15]
  inhibition: -6%
[16]
  inhibition: < 10%
[17]
  C0: 4430 ng/mL
[18]
  IC50: 18 nM
[19]
  IC50: 0.081 nM
[20]
  inhibition: 47%
[21]
  inhibition: < 10%
[22]
  inhibition: < 10%
[23]
  inhibition: -4%
